# Measured values reported in patent US20090144861A1, “Fungicides and Bioregulatory Mixtures” (BASF Aktiengesellschaft, priority 2005, published 2009).
# Tests used:
# Puccinia recondita = assay: Curative activity against brown rust of wheat (Puccrt K1); assay type: in vivo, Puccinia recondita on wheat seedlings cultivar Kanzler; details: sprayed 1 day after inoculation, assessed after 7 days
# Description: The active compounds were prepared separately or jointly as a stock solution with 25 mg of active compound which was made up to 10 ml using a mixture of acetone and/or DMSO and the emulsifier Uniperol® EL (wetting agent having emulsifying and dispersing action based on ethoxylated alkylphenols) in a volume ratio of solvent/emulsifier of 99 to 1. The mixture was then made up to 100 ml with water. This stock solution was diluted with the solvent/emulsifier/water mixture described to the concentration of active compounds stated below. […] The expected efficacies of mixtures of active compounds were determined using Colby's formula (Colby, S. R. “Calculating synergistic and antagonistic responses of herbicide combinations”, Weeds, 15, pp. 20-22, 1967) and compared with the observed efficacies. E=x+y−x×y/100 Use Example 1—Curative activity against brown rust of wheat caused by Puccinia recondita (Puccrt K1) Leaves of potted wheat seedlings of the cultivar “Kanzler” were inoculated with a spore suspension of brown rust (Puccinia recondita). The pots were then placed in a chamber with high atmospheric humidity (90 to 95%) at 20 to 22° C. for 24 hours. During this time, the spores germinated and the germ tubes penetrated into the leaf tissue. The next day, the infected plants were sprayed to run off point with the active compound solution described above at the active compound concentration stated below. […] The extent of the rust fungus development on the leaves was then determined. The visually determined values for the percentage of infected leaf area were initially converted into a mean value and then converted into efficacies in % of the untreated control. […] The expected efficacies for active compound combinations were determined using Colby's formula (Colby, S. R. “Calculating synergistic and antagonistic responses of herbicide Combinations”, Weeds, 15, pp. 20-22, 1967) and compared to the observed efficacies. […]
# [1] = test system: Erysiphe [syn. Blumeria] graminis forma specialis. tritici; assay: Activity against mildew of wheat (Erysgt P1); assay type: in vivo, Erysiphe graminis f. sp. tritici on wheat seedlings; details: sprayed 24 hours before inoculation, assessed after 7 days
# Description: The active compounds were prepared separately or jointly as a stock solution with 25 mg of active compound which was made up to 10 ml using a mixture of acetone and/or DMSO and the emulsifier Uniperol® EL (wetting agent having emulsifying and dispersing action based on ethoxylated alkylphenols) in a volume ratio of solvent/emulsifier of 99 to 1. The mixture was then made up to 100 ml with water. This stock solution was diluted with the solvent/emulsifier/water mixture described to the concentration of active compounds stated below.
# The visually determined percentages of infected leaf areas or the measured elongation were converted into efficacies in % of the untreated control:
# The efficacy (E) is calculated as follows using Abbot's formula: […]
# The expected efficacies of mixtures of active compounds were determined using Colby's formula (Colby, S. R. “Calculating synergistic and antagonistic responses of herbicide combinations”, Weeds, 15, pp. 20-22, 1967) and compared with the observed efficacies.
# Use Example 2—Activity against mildew of wheat caused by Erysiphe [syn. Blumeria] graminis forma specialis. tritici (Erysgt P1)
# Leaves of potted wheat seedlings were sprayed to run off point with an aqueous suspension having the active compound concentrations stated below. The suspension or emulsion had been prepared as described above. 24 hours after the spray coating had dried on, the plants were dusted with spores of mildew of wheat (Erysiphe [syn. Blumeria] graminis forma specialis. tritici). The test plants were then placed in a greenhouse at temperatures between 20 and 24° C. and at 60 to 90% relative atmospheric humidity. After 7 days, the extent of the mildew development was determined visually in % infection of the entire leaf area.
# The visually determined values for the percentage of infected leaf area were initially converted into a mean value and then converted into efficacies in % of the untreated control. An efficacy of 0 means the same degree of infection as in the untreated control, an efficacy of 100 means 0% infection. The expected efficacies for active compound combinations were determined using Colby's formula (Colby, S. R. “Calculating synergistic and antagonistic responses of herbicide Combinations”, Weeds, 15, pp. 20-22, 1967) and compared to the observed efficacies.
# [2] = Conc. 1 mg/ml, efficacy in % of untreated control
Structure (SMILES),"Observed activity (Puccinia recondita; Conc. 0.25 mg/ml, efficacy in % of untreated control) [%]",Observed activity ([1]; Conc. 0.25 mg/ml) [%],"Observed activity [1, 2] [%]",Observed activity (Puccinia recondita; Conc. 0.06 mg/ml) [%],Observed activity (Puccinia recondita; Conc. 1 mg/ml) [%]
"Fc1ccc(C2(Cn3cncn3)OC2c2ccccc2Cl)cc1 (stereo not shown) [Epoxiconazole, epoxiconazole]",11,0,33,,
"CCC(=O)C1=C([O-])CC(C(=O)[O-])CC1=O.[Ca+2] (stereo not shown) [Prohexadione-Ca, prohexadione-calcium]",,0,0,0,0
